Test results reported in patent US20260166122A1, “USE OF MICROPEPTIDE MIAC” (NANJING ANJI BIOTECHNOLOGY CO., LTD, priority 2023, published 2026).
Read-outs that look alike come from different tables or passages of the source. Marks after values point to notes of the source that are not given here. Ends that are not written are not given here.

Experiments:
[1] = system: human cervical cancer cells Hela; type: cell-based; conditions: 72 h
Protocol: (§1) Human pancreatic cancer, hepatocellular carcinoma, colorectal cancer, ovarian cancer, cervical cancer, bladder cancer, melanoma, glioblastoma, neuroblastoma, glioma, osteosarcoma, myeloma, lymphoma, hematologic malignancies, and cholangiocarcinoma cells were cultured in an incubator at 37° C. with 5% CO2 until the density reached 90%, then digested and collected with trypsin, resuspended in a culture medium, and counted under a microscope; the cell concentration was adjusted to about 1.0×10^5 cells/mL; and the cell suspension was inoculated into a 96-well plate, with 100 μL per well, and incubated overnight in an incubator at 37° C. with 5% CO2. After the cells were completely attached to the wall, 100 μL of micropeptides MIAC with concentrations of 50 μM, 100 μM and 200 μM were added to form an administration group; and a culture medium without any medicament was used as a negative control group. After continuing incubation for 72 h, 100 μL of CCK8 was added to each well of the 96-well plate for dissolving. The absorbance OD was measured at a detection wavelength of 450 nm with a microplate reader, and the proliferation inhibition (PI) was calculated using the formula of PI (%)=1-administration group/negative control group. The experiment was repeated 3 times independently, the results were expressed as Mean±SD, and a statistical T test was performed, where *P<0.05 indicated a significant difference and **P<0.01 indicated an extremely significant difference.

[2] = system: human cholangiocarcinoma cells QBC939; type: cell-based; conditions: 72 h
Protocol: as §1

[3] = system: human colon cancer cells HCT-116; type: cell-based; conditions: 72 h
Protocol: as §1

[4] = system: human diffuse large B-cell lymphoma cells WSU-DLCL2; type: cell-based; conditions: 72 h
Protocol: as §1

[5] = system: human glioma cells SHG-44; type: cell-based; conditions: 72 h
Protocol: as §1

[6] = system: human hepatocellular carcinoma cells QGY-7701; type: cell-based; conditions: 72 h
Protocol: as §1

[7] = system: human hepatocellular carcinoma cells SMMC-7721; type: cell-based; conditions: 72 h
Protocol: as §1

[8] = system: human lymphoma cells Raji; type: cell-based; conditions: 72 h
Protocol: as §1

[9] = system: human malignant melanoma cells A375; type: cell-based; conditions: 72 h
Protocol: as §1

[10] = system: human mantle cell lymphoma cells JeKo-1; type: cell-based; conditions: 72 h
Protocol: as §1

[11] = system: human myeloma cells ARP-1; type: cell-based; conditions: 72 h
Protocol: as §1

[12] = system: human myeloma cells NCI-H929; type: cell-based; conditions: 72 h
Protocol: as §1

[13] = system: human neuroblastoma cells SH-SY5Y; type: cell-based; conditions: 72 h
Protocol: as §1

[14] = system: human gastric carcinoma cells BGC-803; type: cell-based; conditions: 72 h
[15] = system: human gastric carcinoma cells BGC-823; type: cell-based; conditions: 72 h
[16] = system: human hepatocellular carcinoma Hep3B cells; test: subcutaneously transplanted Hep3B tumor in nude mice; type: in vivo, BALB/c nude mouse; conditions: Hep3B subcutaneous transplanted tumor, BALB/c nude mice, 5, 10, 15, 20 mg/kg; dose-dependent
Protocol: Human hepatocellular carcinoma Hep3B cells were cultured in large quantities and digested with a 0.25% trypsin solution; and the cell suspension after digestion termination was centrifuged at 1000 rpm for 5 minutes, and the cells were resuspended in a serum-free MEM medium and then counted to adjust the cell concentration to 5×10^7 cells/mL. Each BALB/c nude mouse (4-6 weeks old, female, weighing 14-16 g, adaptively housed in an SPF animal breeding room for 1 week) was inoculated with 100 μL of the cell suspension in the left axilla, with an inoculated cell amount of 5×10^6 cells. After inoculation, the tumor growth at the inoculation site of nude mice was closely observed. On the 7th day after inoculation, white nodules appeared at the inoculation site, which could be moved subcutaneously upon touch. As the tumor tissue grew, a hard tumor mass gradually formed at the inoculation site. […] The volume of the transplanted tumor was measured and recorded every two days, and the formula for calculating the tumor volume (TV) was: tumor volume=0.5×a×b^2, where a is the length (mm) of the transplanted tumor and b is the width (mm) of the transplanted tumor.

MERAGVPGFSPRRSSVEAKMQSTSCSVRKSSTVTAWPAVVLLLSWGQRRGG [MIAC, micropeptide inhibiting actin cytoskeleton]
OD ([1]; 50 μM): 0.954 ± 0.041**
OD ([1]; 100 μM): 0.801 ± 0.039**
OD ([1]; 200 μM): 0.532 ± 0.066**
OD ([2]; QBC939, 50 μM): 1.13 ± 0.053
OD ([2]; QBC939, 100 μM): 0.757 ± 0.028**
OD ([2]; QBC939, 200 μM): 0.468 ± 0.045**
OD ([3]; HCT-116, 50 μM): 1.253 ± 0.019**
OD ([3]; HCT-116, 100 μM): 0.976 ± 0.038**
OD ([3]; HCT-116, 200 μM): 0.688 ± 0.047**
OD ([4]; WSU-DLCL2, 50 μM): 0.908 ± 0.061
OD ([4]; WSU-DLCL2, 100 μM): 0.684 ± 0.039**
OD ([4]; WSU-DLCL2, 200 μM): 0.264 ± 0.056**
OD ([5]; SHG-44, 50 μM): 1.201 ± 0.026
OD ([5]; SHG-44, 100 μM): 0.838 ± 0.067**
OD ([5]; SHG-44, 200 μM): 0.393 ± 0.021**
OD ([6]; QGY-7701, 50 μM): 1.185 ± 0.018**
OD ([6]; QGY-7701, 100 μM): 0.785 ± 0.030**
OD ([6]; QGY-7701, 200 μM): 0.520 ± 0.019**
OD ([7]; SMMC-7721, 50 μM): 1.292 ± 0.012
OD ([7]; SMMC-7721, 100 μM): 1.032 ± 0.011**
OD ([7]; SMMC-7721, 200 μM): 0.674 ± 0.033**
OD ([8]; 50 μM): 0.964 ± 0.037
OD ([8]; 100 μM): 0.687 ± 0.019**
OD ([8]; 200 μM): 0.421 ± 0.029**
OD ([9]; A375, 50 μM): 1.310 ± 0.069**
OD ([9]; A375, 100 μM): 1.194 ± 0.043**
OD ([9]; A375, 200 μM): 0.911 ± 0.071**
OD ([10]; JeKo-1, 50 μM): 1.174 ± 0.027
OD ([10]; JeKo-1, 100 μM): 0.820 ± 0.078**
OD ([10]; JeKo-1, 200 μM): 0.496 ± 0.052**
OD ([11]; ARP-1, 50 μM): 0.985 ± 0.008
OD ([11]; ARP-1, 100 μM): 0.692 ± 0.047**
OD ([11]; ARP-1, 200 μM): 0.433 ± 0.013**
OD ([12]; NCI-H929, 50 μM): 0.860 ± 0.012**
OD ([12]; NCI-H929, 100 μM): 0.427 ± 0.016**
OD ([12]; NCI-H929, 200 μM): 0.263 ± 0.026**
OD ([13]; 50 μM): 1.033 ± 0.022
OD ([13]; 100 μM): 0.822 ± 0.108**
OD ([13]; 200 μM): 0.665 ± 0.011**
OD ([14]; BGC-803, 50 μM): 1.379 ± 0.025
OD ([14]; BGC-803, 100 μM): 0.960 ± 0.059
OD ([14]; BGC-803, 200 μM): 0.715 ± 0.015
OD ([15]; BGC-823, 50 μM): 0.950 ± 0.045
OD ([15]; BGC-823, 100 μM): 0.556 ± 0.029
OD ([15]; BGC-823, 200 μM): 0.327 ± 0.025
in vivo tumor growth (tumor volume, tumor weight) versus blank control [16]: significantly inhibit the in vivo tumor growth
